According to article PMC11678797, “A Repurposed Drug Selection Pipeline to Identify CNS-Penetrant Drug Candidates for Glioblastoma” (Pharmaceuticals, 2024):
Where two headings read alike, the source gives them in different places.

Assay: Pharmacokinetics of omacetaxine in orthotopic glioblastoma PDX and naïve NOD/SCID mice (LC-MS/MS of plasma, brain, liver)
Type: in vivo, mouse
Description: An amount of 10 μL medium samples was vortex-mixed with 30 μL of acetonitrile: formic acid (100:1 v/v) containing 100 nM RO-3306 Internal Standard). After centrifugation, the supernatant was 5-fold diluted in water. OMA concentrations were measured using an LC-MS/MS system that consisted of an UltiMate 3000 LC System (Dionex, Sunnyvale, CA, USA) and an API 4000 mass spectrometer (Sciex, Framingham, MA, USA). Samples were analyzed using a ZORBAX Extend-C18 column (Agilent, Santa Clara, CA, USA), preceded by a Security-guard C18 pre-column (Phenomenex, Utrecht, The Netherlands). Elution was performed using a mixture of mobile phase A (0.1% formic acid in water (v/v)) and mobile phase B (methanol) in a 5 min gradient from 20% to 95% B, followed by 95% B that was maintained for 3 min and then re-equilibrated at 20% B. Multiple reaction monitoring parameters were 546.6/298.1 (OMA) and 352.1/186.0 (RO-3306).
Non-obese diabetic severe combined immunodeficient (NOD/SCID) female mice 6–8 weeks of age were used for this study. All experiments were ethically approved by the local Animal Experiments Committee. Patient-derived glioblastoma cell lines were cultured under serum-free conditions prior to injection into the mice. Mice were stereotactically injected with GS607, GS832 (both 2.5 × 10^5 in 5 μL) or GBM8 (1 × 10^5 in 3 μL) in the right striatum 1.0 mm anteroposterior (AP), 2.0 mm medio lateral (ML) and −2.5 mm dorsal ventral (DV) of bregma suture under aseptic conditions. Mice were monitored daily for signs of persistent abnormal behavior and/or breathing, weight loss >20% and development of neurological symptoms such as convulsions, seizures and/or hemiparesis. Mice were euthanized and the mouse brains harvested for histological and LC/MS/MS analysis.
A single dose of 1.5 mg/kg of OMA was administered s.c. to glioblastoma-bearing NOD/SCID and naïve non-tumor-bearing mice. Mice received OMA prior to the timepoint drug delivery experiment, ensuring the presence of significant tumor masses. For GS607, this was at 78 days; for GS832 at 90 days; and for GBM8 at 46 days post-tumor implantation, based on previous survival experiments. Blood samples were collected at 15 min, 30 min, 60 min, 120 min and 240 min via the tail vein and/or submandibular vein and placed in EDTA tubes. Mice were euthanized at 60 min, 120 min or 240 min with cervical dislocation. Brains and livers were surgically collected and snap-frozen in liquid nitrogen (N2). To preserve the drug stability in plasma mouse blood, samples were centrifuged immediately upon collection. Plasma was separated by centrifugation at 3500 rpm at 4 °C for 15 min. Both plasma and tissue samples were stored at −80 °C until LC-MS/MS analysis.

## COC(=O)C[C@](O)(CCCC(C)(C)O)C(=O)O[C@@H]1C(OC)=C[C@]23CCCN2CCc2cc4c(cc2[C@H]13)OCO4 [OMA, Omacetaxine mepesuccinate]
female, NOD/SCID, mouse, brain, right hemisphere (tumor bearing), sc, 1.5 mg/kg, GS832-PDX, 120 min, single s.c. dose 1.5 mg/kg, n = 5, read-out: [Brain] ± SD, right hemisphere (tumor bearing)
  concentration at 120 min: 20.8 ± 16.9 ng/g
female, NOD/SCID, mouse, brain, right hemisphere (tumor bearing), sc, 1.5 mg/kg, GS832-PDX, 240 min, single s.c. dose 1.5 mg/kg, n = 5, read-out: [Brain] ± SD, right hemisphere (tumor bearing)
  concentration at 240 min: 11.6 ± 6.4 ng/g
female, NOD/SCID, mouse, brain, sc, 1.5 mg/kg, GBM8 PDX, 60 min, single s.c. dose 1.5 mg/kg, read-out: [Brain]/[Plasma] Ratio ± SD
  Kp at 60 min: 0.11
female, NOD/SCID, mouse, brain, sc, 1.5 mg/kg, GS607-PDX, 60 min, single s.c. dose 1.5 mg/kg, n = 2 blood samples, read-out: [Brain]/[Plasma] Ratio ± SD
  Kp at 60 min: 0.23
female, NOD/SCID, mouse, brain, sc, 1.5 mg/kg, GS832-PDX, 60 min, single s.c. dose 1.5 mg/kg, read-out: [Brain]/[Plasma] Ratio ± SD
  Kp at 60 min: 0.1
female, NOD/SCID, mouse, brain, sc, 1.5 mg/kg, GS832-PDX, 120 min, single s.c. dose 1.5 mg/kg, read-out: [Brain]/[Plasma] Ratio ± SD
  Kp at 120 min: 0.37 ± 0.24
female, NOD/SCID, mouse, brain, sc, 1.5 mg/kg, GS832-PDX, 240 min, single s.c. dose 1.5 mg/kg, read-out: [Brain]/[Plasma] Ratio ± SD
  Kp at 240 min: 0.5
female, NOD/SCID, mouse, brain, sc, 1.5 mg/kg, naïve non-tumor-bearing mice, 60 min, single s.c. dose 1.5 mg/kg, read-out: [Brain]/[Plasma] Ratio ± SD
  Kp at 60 min: 0.05 ± 0.01
female, NOD/SCID, mouse, brain, subcutaneous, 1.5 mg/kg, stated as at 60 min, range across PDX models, read-out: B/P ratio across the PDX models
  Kp at 60 min: 0.12 to 0.5
female, NOD/SCID, mouse, liver, sc, 1.5 mg/kg, GBM8 PDX, 60 min, single s.c. dose 1.5 mg/kg, n = 6, read-out: [Liver] ± SD
  concentration at 60 min: 998 ± 254 ng/g
female, NOD/SCID, mouse, liver, sc, 1.5 mg/kg, GS607-PDX, 60 min, single s.c. dose 1.5 mg/kg, n = 4, read-out: [Liver] ± SD
  concentration at 60 min: 1650 ± 163 ng/g
female, NOD/SCID, mouse, liver, sc, 1.5 mg/kg, GS832-PDX, 60 min, single s.c. dose 1.5 mg/kg, n = 5, read-out: [Liver] ± SD
  concentration at 60 min: 680 ± 156 ng/g
female, NOD/SCID, mouse, liver, sc, 1.5 mg/kg, GS832-PDX, 120 min, single s.c. dose 1.5 mg/kg, n = 5, read-out: [Liver] ± SD
  concentration at 120 min: 338 ± 94 ng/g
female, NOD/SCID, mouse, liver, sc, 1.5 mg/kg, GS832-PDX, 240 min, single s.c. dose 1.5 mg/kg, n = 5, read-out: [Liver] ± SD
  concentration at 240 min: 190 ± 48 ng/g
female, NOD/SCID, mouse, liver, sc, 1.5 mg/kg, naïve non-tumor-bearing mice, 60 min, single s.c. dose 1.5 mg/kg, n = 2, read-out: [Liver] ± SD
  concentration at 60 min: 715.9 ± 4.6 ng/g
female, NOD/SCID, mouse, plasma, sc, 1.5 mg/kg, GBM8 PDX, 60 min, single s.c. dose 1.5 mg/kg, n = 6, read-out: [Plasma] ± SD
  concentration at 60 min: 391 ± 58 ng/mL
female, NOD/SCID, mouse, plasma, sc, 1.5 mg/kg, GS607-PDX, 60 min, single s.c. dose 1.5 mg/kg, n = 2 blood samples, read-out: [Plasma] ± SD
  concentration at 60 min: 88 ± 9 ng/mL
female, NOD/SCID, mouse, plasma, sc, 1.5 mg/kg, GS832-PDX NOD/SCID mice, single s.c. dose 1.5 mg/kg, 15 min (Table 1), read-out: [Plasma] ± SD
  concentration at 15 min: 396 ± 59 ng/mL
female, NOD/SCID, mouse, plasma, sc, 1.5 mg/kg, GS832-PDX NOD/SCID mice, single s.c. dose 1.5 mg/kg, 30 min (Table 1), read-out: [Plasma] ± SD
  concentration at 30 min: 282 ± 65.4 ng/mL
female, NOD/SCID, mouse, plasma, sc, 1.5 mg/kg, GS832-PDX NOD/SCID mice, single s.c. dose 1.5 mg/kg, 60 min (Table 1, n = 9), read-out: [Plasma] ± SD
  concentration at 60 min: 166 ± 29 ng/mL
female, NOD/SCID, mouse, plasma, sc, 1.5 mg/kg, GS832-PDX NOD/SCID mice, single s.c. dose 1.5 mg/kg, 120 min (Table 1, n = 10), read-out: [Plasma] ± SD
  concentration at 120 min: 57.8 ± 10.8 ng/mL
female, NOD/SCID, mouse, plasma, sc, 1.5 mg/kg, GS832-PDX NOD/SCID mice, single s.c. dose 1.5 mg/kg, 240 min (Table 1), read-out: [Plasma] ± SD
  concentration at 240 min: 24 ± 3 ng/mL
female, NOD/SCID, mouse, plasma, sc, 1.5 mg/kg, GS832-PDX, 60 min, single s.c. dose 1.5 mg/kg, n = 5 (Table 2), read-out: [Plasma] ± SD
  concentration at 60 min: 186 ± 21.1 ng/mL
female, NOD/SCID, mouse, plasma, sc, 1.5 mg/kg, GS832-PDX, 120 min, single s.c. dose 1.5 mg/kg, n = 5 (Table 2), read-out: [Plasma] ± SD
  concentration at 120 min: 55.6 ± 10.7 ng/mL
female, NOD/SCID, mouse, plasma, sc, 1.5 mg/kg, GS832-PDX, 240 min, single s.c. dose 1.5 mg/kg, n = 5 (Table 2), read-out: [Plasma] ± SD
  concentration at 240 min: 23.5 ± 0.7 ng/mL
female, NOD/SCID, mouse, plasma, sc, 1.5 mg/kg, naïve non-tumor-bearing mice, 60 min, single s.c. dose 1.5 mg/kg, n = 2, read-out: [Plasma] ± SD
  concentration at 60 min: 224 ± 12 ng/mL
female, NOD/SCID, mouse, plasma, sc, GS832 tumor-bearing mice, single s.c. dose 1.5 mg/kg, read-out: time of peak concentration in plasma (converted)
  Tmax: 15 min
female, NOD/SCID, mouse, sc, plasma, GS832 tumor-bearing mice, single s.c. dose 1.5 mg/kg
  half-life: 50 min
naïve non-tumor-bearing mice, 60 min, single s.c. dose 1.5 mg/kg, n = 2, 1.5 mg/kg
  [Brain] ± SD, right hemisphere (non-tumor-bearing): 16.4 ± 2.9 ng/g
